In ChEMBL document CHEMBL3808308, “Synergistic potentiation of (-)-lomaiviticin A cytotoxicity by the ATR inhibitor VE-821” (Bioorg Med Chem Lett, 2016):
Calls of active or inactive are those of the source. The rule behind the calls is not given here.

Experiments:
[1] = test system: K562; assay: Potentiation of 0.05 nM (-)-lomaiviticin A-induced cytotoxicity against human K562 cells assessed as fraction ratio affected at 10 uM after 24 hrs by cell titer-glo luminescence assay; type: functional
[2] = test system: K562; assay: Potentiation of 0.25 nM (-)-lomaiviticin A-induced cytotoxicity against human K562 cells assessed as fraction ratio affected at 10 uM after 24 hrs by cell titer-glo luminescence assay; type: functional
[3] = test system: K562; assay: Potentiation of 0.5 nM (-)-lomaiviticin A-induced cytotoxicity against human K562 cells assessed as fraction ratio affected at 10 uM after 24 hrs by cell titer-glo luminescence assay; type: functional
[4] = test system: K562; assay: Potentiation of 2.5 nM (-)-lomaiviticin A-induced cytotoxicity against human K562 cells assessed as fraction ratio affected at 10 uM after 24 hrs by cell titer-glo luminescence assay; type: functional
[5] = test system: K562; assay: Potentiation of 5 nM (-)-lomaiviticin A-induced cytotoxicity against human K562 cells assessed as fraction ratio affected at 10 uM after 24 hrs by cell titer-glo luminescence assay; type: functional
[6] = test system: K562; assay: Potentiation of 0.025 nM (-)-lomaiviticin A-induced cytotoxicity against human K562 cells assessed as combination index at 10 uM after 24 hrs by cell titer-glo luminescence assay; type: functional
[7] = test system: K562; assay: Potentiation of 0.05 nM (-)-lomaiviticin A-induced cytotoxicity against human K562 cells assessed as combination index at 10 uM after 24 hrs by cell titer-glo luminescence assay; type: functional
[8] = test system: K562; assay: Potentiation of 0.25 nM (-)-lomaiviticin A-induced cytotoxicity against human K562 cells assessed as combination index at 10 uM after 24 hrs by cell titer-glo luminescence assay; type: functional
[9] = test system: K562; assay: Potentiation of 0.5 nM (-)-lomaiviticin A-induced cytotoxicity against human K562 cells assessed as combination index at 10 uM after 24 hrs by cell titer-glo luminescence assay; type: functional
[10] = test system: K562; assay: Potentiation of 2.5 nM (-)-lomaiviticin A-induced cytotoxicity against human K562 cells assessed as combination index at 10 uM after 24 hrs by cell titer-glo luminescence assay; type: functional
[11] = test system: K562; assay: Potentiation of 5 nM (-)-lomaiviticin A-induced cytotoxicity against human K562 cells assessed as combination index at 10 uM after 24 hrs by cell titer-glo luminescence assay; type: functional
[12] = test system: K562; assay: Potentiation of 0.025 nM (-)-lomaiviticin A-induced cytotoxicity against human K562 cells assessed as fraction ratio affected at 10 uM after 48 hrs by cell titer-glo luminescence assay; type: functional
[13] = test system: K562; assay: Potentiation of 0.05 nM (-)-lomaiviticin A-induced cytotoxicity against human K562 cells assessed as fraction ratio affected at 10 uM after 48 hrs by cell titer-glo luminescence assay; type: functional
[14] = test system: K562; assay: Potentiation of 0.25 nM (-)-lomaiviticin A-induced cytotoxicity against human K562 cells assessed as fraction ratio affected at 10 uM after 48 hrs by cell titer-glo luminescence assay; type: functional
[15] = test system: K562; assay: Potentiation of 0.5 nM (-)-lomaiviticin A-induced cytotoxicity against human K562 cells assessed as fraction ratio affected at 10 uM after 48 hrs by cell titer-glo luminescence assay; type: functional
[16] = test system: K562; assay: Potentiation of 2.5 nM (-)-lomaiviticin A-induced cytotoxicity against human K562 cells assessed as fraction ratio affected at 10 uM after 48 hrs by cell titer-glo luminescence assay; type: functional
[17] = test system: K562; assay: Potentiation of 5 nM (-)-lomaiviticin A-induced cytotoxicity against human K562 cells assessed as fraction ratio affected at 10 uM after 48 hrs by cell titer-glo luminescence assay; type: functional
[18] = test system: K562; assay: Potentiation of 0.025 nM (-)-lomaiviticin A-induced cytotoxicity against human K562 cells assessed as combination index at 10 uM after 48 hrs by cell titer-glo luminescence assay; type: functional
[19] = test system: K562; assay: Potentiation of 0.05 nM (-)-lomaiviticin A-induced cytotoxicity against human K562 cells assessed as combination index at 10 uM after 48 hrs by cell titer-glo luminescence assay; type: functional
[20] = test system: K562; assay: Potentiation of 0.25 nM (-)-lomaiviticin A-induced cytotoxicity against human K562 cells assessed as combination index at 10 uM after 48 hrs by cell titer-glo luminescence assay; type: functional
[21] = test system: K562; assay: Potentiation of 0.5 nM (-)-lomaiviticin A-induced cytotoxicity against human K562 cells assessed as combination index at 10 uM after 48 hrs by cell titer-glo luminescence assay; type: functional
[22] = test system: K562; assay: Potentiation of 2.5 nM (-)-lomaiviticin A-induced cytotoxicity against human K562 cells assessed as combination index at 10 uM after 48 hrs by cell titer-glo luminescence assay; type: functional
[23] = test system: K562; assay: Potentiation of 5 nM (-)-lomaiviticin A-induced cytotoxicity against human K562 cells assessed as combination index at 10 uM after 48 hrs by cell titer-glo luminescence assay; type: functional
[24] = test system: K562; assay: Cytotoxicity against human K562 cells assessed as decrease in cell viability up to 10 uM after 24 to 48 hrs by cell titer-glo luminescence assay; type: cell-based
[25] = test system: K562; assay: Potentiation of 50 pM (-)-lomaiviticin A-induced cytotoxicity against human K562 cells assessed as decrease in cell viability at 10 uM after 24 hrs by cell titer-glo luminescence assay; type: functional
[26] = test system: K562; assay: Potentiation of 50 pM (-)-lomaiviticin A-induced cytotoxicity against human K562 cells assessed as decrease in cell viability at 10 uM after 48 hrs by cell titer-glo luminescence assay; type: functional
[27] = test system: K562; assay: Potentiation of 500 pM (-)-lomaiviticin A-induced cytotoxicity against human K562 cells assessed as decrease in cell viability at 10 uM after 48 hrs by cell titer-glo luminescence assay; type: functional
[28] = test system: K562; assay: Induction of DNA double-strand breaks in human K562 cells after 24 hrs by neutral comet assay in presence of (-)-lomaiviticin A; type: functional, cell-based
[29] = test system: K562; assay: Induction of DNA double-strand breaks in human K562 cells assessed as median tail moment at 10 uM after 24 hrs by neutral comet assay in presence of 500 pM (-)-lomaiviticin A; type: functional
[30] = test system: K562; assay: Induction of apoptosis in human K562 cells assessed as gammaH2AX/53BP1 levels at 10 uM after 48 hrs by DAPI staining based immunofluorescence microscopy in presence of 25 to 250 pM (-)-lomaiviticin A; type: functional, cell-based
[31] = test system: K562; assay: Induction of apoptosis in human K562 cells assessed as gammaH2AX/53BP1 levels at 10 uM after 48 hrs by DAPI staining based immunofluorescence microscopy; type: cell-based; conditions: k562, 48 h
[32] = test system: K562; assay: Cytotoxicity against human K562 cells assessed as decrease in cell viability up to 2.5 to 10 uM after 24 to 48 hrs by cell titer-glo luminescence assay; type: cell-based
[33] = Cytotoxicity against human K562 cells assessed as decrease in cell viability after 24 hrs by cell titer-glo luminescence assay; type: cell-based; conditions: read-out: ED50
[34] = Cytotoxicity against human K562 cells assessed as decrease in cell viability after 48 hrs by cell titer-glo luminescence assay; type: cell-based; conditions: read-out: ED50
[35] = test system: K562; assay: Potentiation of 0.025 nM (-)-lomaiviticin A-induced cytotoxicity against human K562 cells assessed as fraction ratio affected at 10 uM after 24 hrs by cell titer-glo luminescence assay; type: functional

CS(=O)(=O)c1ccc(-c2cnc(N)c(C(=O)Nc3ccccc3)n2)cc1
Ratio [1]: 0.1819 | Ratio [2]: 0.6516 | Ratio [3]: 0.814 | Ratio [4]: 0.8772 | Ratio [5]: 0.9357 | CI [6]: 0.1138 | CI [7]: 0.0774 | CI [8]: 0.06881 | CI [9]: 0.09717 | CI [10]: 0.4019 | CI [11]: 0.6748 | Ratio [12]: 0.3737 | Ratio [13]: 0.6017 | Ratio [14]: 0.9206 | Ratio [15]: 0.961 | Ratio [16]: 0.966 | Ratio [17]: 0.9837 | CI [18]: 0.2066 | CI [19]: 0.1328 | CI [20]: 0.1058 | CI [21]: 0.1448 | CI [22]: 0.6223 | CI [23]: 1.029 | Activity [24]: < 13% | Activity [25]: 18% | Activity [26]: 40% | Activity [27]: 96% | Activity [28]: Dose-dependent effect | Activity [29]: 34 | Activity [30]: Active | Activity [31]: Non-toxic | Activity [32]: Non-toxic | CC50 at 24 h [33]: 449 µM | CC50 at 48 h [34]: 71 µM | Ratio [35]: 0.08806
